The target in assay [1] is T1, HmuS (Bacteroides thetaiotaomicron, UniProt A0A0P0FP54, H538A).
T1 construct: gene GAN91_17490; soluble HmuS without its predicted N- and C-terminal membrane-anchoring helices
Description: UV/vis hemin titration of purified mutant; no turnover to PPIX. Type of assay: binding.

The target in assay [2] is T2, HmuS (Bacteroides thetaiotaomicron, UniProt A0A0P0FP54).
T2 construct: gene GAN91_17490; soluble HmuS without its predicted N- and C-terminal membrane-anchoring helices
T2 sequence (A0A0P0FP54 28-1433 limits assumed): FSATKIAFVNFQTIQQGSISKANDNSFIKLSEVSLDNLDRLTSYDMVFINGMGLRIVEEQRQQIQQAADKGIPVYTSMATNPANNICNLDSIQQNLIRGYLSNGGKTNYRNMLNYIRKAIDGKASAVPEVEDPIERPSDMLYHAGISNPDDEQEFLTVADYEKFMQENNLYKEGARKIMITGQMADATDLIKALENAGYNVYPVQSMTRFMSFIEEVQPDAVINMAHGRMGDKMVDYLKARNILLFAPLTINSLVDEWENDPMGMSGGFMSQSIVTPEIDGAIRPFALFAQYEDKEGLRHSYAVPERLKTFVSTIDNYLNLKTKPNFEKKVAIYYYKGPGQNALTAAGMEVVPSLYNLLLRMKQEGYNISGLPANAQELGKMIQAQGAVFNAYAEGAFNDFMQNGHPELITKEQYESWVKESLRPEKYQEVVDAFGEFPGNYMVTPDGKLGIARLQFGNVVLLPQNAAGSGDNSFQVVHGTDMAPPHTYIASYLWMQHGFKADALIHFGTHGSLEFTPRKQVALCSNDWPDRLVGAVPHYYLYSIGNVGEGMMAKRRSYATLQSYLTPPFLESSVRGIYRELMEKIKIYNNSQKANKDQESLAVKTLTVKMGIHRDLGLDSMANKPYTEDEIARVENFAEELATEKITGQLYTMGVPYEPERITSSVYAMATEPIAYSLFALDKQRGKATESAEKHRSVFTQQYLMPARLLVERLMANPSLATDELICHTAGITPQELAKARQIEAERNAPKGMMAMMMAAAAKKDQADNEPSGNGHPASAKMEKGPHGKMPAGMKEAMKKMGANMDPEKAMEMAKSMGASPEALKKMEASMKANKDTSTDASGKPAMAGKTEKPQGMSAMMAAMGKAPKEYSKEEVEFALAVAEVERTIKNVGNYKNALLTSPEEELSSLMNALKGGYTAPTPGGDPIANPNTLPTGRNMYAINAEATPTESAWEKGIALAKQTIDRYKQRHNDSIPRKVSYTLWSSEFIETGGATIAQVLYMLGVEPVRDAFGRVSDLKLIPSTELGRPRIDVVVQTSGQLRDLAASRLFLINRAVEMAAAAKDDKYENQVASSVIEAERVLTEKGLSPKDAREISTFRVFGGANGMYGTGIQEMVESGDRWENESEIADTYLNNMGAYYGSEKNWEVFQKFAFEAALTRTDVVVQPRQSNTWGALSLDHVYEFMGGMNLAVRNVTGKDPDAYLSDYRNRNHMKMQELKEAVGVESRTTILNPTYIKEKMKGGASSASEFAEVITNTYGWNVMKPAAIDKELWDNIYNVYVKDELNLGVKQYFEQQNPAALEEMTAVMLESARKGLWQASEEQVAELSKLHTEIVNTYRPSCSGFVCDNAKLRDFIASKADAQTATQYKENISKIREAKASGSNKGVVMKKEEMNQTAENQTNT
Description: cryo-EM structure at […] Å with heme; UV/vis hemin titration (Kd); HPLC turnover to PPIX. It is filed as binding.

The structures appear in SMILES notation.

Broadly, the Kd is the concentration at which binding is half-saturated. A lower Kd goes with higher affinity.

`C=CC1=C(C)C2=Cc3c(C=C)c(C)c4[n]3[Fe][n]3c(c(C)c(CCC(=O)O)c3=CC3=NC(=C4)C(C)=C3CCC(=O)O)=CC1=N2` [heme]: the equilibrium dissociation constant (Kd) on HmuS [1] is 1.4 ± 0.1 µM; on HmuS [2], 6 ± 6 µM.
